Data reported in ChEMBL document CHEMBL1130958, “Templates for design of inhibitors for serine proteases: application of the program DOCK to the discovery of novel inhibitors for thrombin” (Bioorg Med Chem Lett, 1998).

Molecular target: Prothrombin (Homo sapiens, UniProt P00734)
Assay: Dissociation constant was evaluated by competitive inhibition of alpha-thrombin using the method of Dixon enzyme assay.

Structure (SMILES)	Ki [µM]
O=C(/N=N/c1ccccc1)NNc1ccccc1	1.7
c1ccc(CN2CCN(Cc3ccccc3)CCN(Cc3ccccc3)CC2)cc1	410
